Patent publication US20230338391A1, “TREATMENT FOR DEPRESSION” (TAKEDA PHARMACEUTICAL COMPANY LIMITED, priority 2020, published 2023)
Entries after “also recorded” stand apart in the source; their conditions may differ.

Legend:
[1] = in vivo; set-up: species or system Sprague-Dawley rats; details: both sexes, Sprague-Dawley, rat, po
Method: (§1) An appropriate amount of methylcellulose (MC) was weighed and mixed with a small amount of warm water for injection. The mixture was then diluted with water for injection to make a 0.5% (w/v) MC solution. The vehicle was used for dosing in the control group. To make a 40 mg/mL suspension of COMPOUND A, an appropriate amount of the test article was weighed and mixed with the vehicle using a planetary centrifugal mixer and the mixture was then diluted with additional vehicle. The 40 mg/mL suspension was used to make 20 and 10 mg/mL suspensions by stepwise dilutions with the vehicle. The dosing suspensions were stored in a refrigerator (actual values: 3.7° C. to 6.1° C., acceptable range: 2° C. to 8° C.) under light-resistant conditions (tight container) and used within 8 days after preparation.
(§2) Males and females in good condition were selected for this study based on examinations within 4 days before the first dosing. Based on their body weights, animals were stratified and allocated randomly to 3 main study groups, each composed of 18 males and 18 females, and 2 satellite groups each composed of 9 males and 9 females for determination of plasma drug and metabolite concentrations. Surplus animals after animal selection were excluded from the study on the day after the animal selection or the day dosing commenced (Day 1).
(§3) The behavior of the high-dose main study and TK satellite groups was video-recorded continuously throughout the dosing period (until the morning on the day of necropsy) under non-GLP conditions. The video-recorded images were kept on a hard drive and were archived as study data. […]
(§4) Each animal was weighed pre-dose using electronic balances (PB3002-S; Mettler-Toledo K.K. and UX4200H; Shimadzu Corporation) on Days 1, 2, 4, 7, 11, and 14 during the dosing period. Body weights were also measured for all animals on the day of necropsy on Days 3, 8, and 15, and these terminal body weight values were also used for calculation of the amount of anesthesia. […]

[2] = system: Sprague-Dawley rats; test: in vivo; details: female, rat, 200 mg/kg/day, 14 days
Method: as §1, §2, §3, §4

[3] = system: CNS excitability; test: TMS crossover study of CNS PD activity in healthy subjects
[4] = system: MEPs; test: Nonclinical MEP amplitude in rats; assay type: in vivo; details: nonclinical data
[5] = 0.5 mg and 6 mg single oral doses

For `CC1=CN2CCS(=O)(=O)N=C2C(c2ccc(OC3CCCCC3)cc2)=N1` [COMPOUND A, 9-[4-(Cyclohexyloxy)phenyl]-7-methyl-3,4-dihydropyrazino[2,1-c][1,2,4]thiadiazine 2,2-dioxide], the NOAEL at 14 days [1] was 100 mg/kg/day, the “cerebellar Purkinje cell histopathology (HE, Fluoro-Jade)” value [2] was “necrosis and/or Fluoro-Jade positive staining of Purkinje cells (dendrites, cell bodies, or axons) in 3 rats” and the “tonic convulsions (video recordings)” value [2] was “tonic convulsions in 2 rats”. For the same compound, the “SICI measurements and other secondary endpoints” value [3, 5] was “not statistically significant”, the “changes from baseline in the rMT, single-pulse TMS” value [3, 5] was “not statistically significant” and the “change from baseline of LICI 300 ms” value ([3]; 0.5 mg single oral dose, 2.5 hours post-dose) was “statistically significant PD effect”. The “peak-to-peak amplitude of the MEP, single-pulse TMS, change from baseline vs placebo” value ([3]; 6 mg single oral dose, 2.5 hours post-dose, stimulation intensity 120% of baseline rMT) was “statistically significant difference from baseline when compared with placebo; also recorded: statistically significant PD effect” and the “amplitude of MEPs” value [4] was “increases the amplitude of MEPs in rats”.
